How the values were obtained:
[1] = biological target: Cholinesterase (Equus caballus) (UniProt P81908); conditions: at 2 mg/mL
Description: Inhibition of horse BChE at 2 mg/ml by Ellman's method

[2] = biological target: Acetylcholinesterase (Electrophorus electricus) (UniProt O42275); conditions: at 2 mg/mL
Acetylcholinesterase (Electrophorus electricus), sequence (O42275 24-633 limits assumed): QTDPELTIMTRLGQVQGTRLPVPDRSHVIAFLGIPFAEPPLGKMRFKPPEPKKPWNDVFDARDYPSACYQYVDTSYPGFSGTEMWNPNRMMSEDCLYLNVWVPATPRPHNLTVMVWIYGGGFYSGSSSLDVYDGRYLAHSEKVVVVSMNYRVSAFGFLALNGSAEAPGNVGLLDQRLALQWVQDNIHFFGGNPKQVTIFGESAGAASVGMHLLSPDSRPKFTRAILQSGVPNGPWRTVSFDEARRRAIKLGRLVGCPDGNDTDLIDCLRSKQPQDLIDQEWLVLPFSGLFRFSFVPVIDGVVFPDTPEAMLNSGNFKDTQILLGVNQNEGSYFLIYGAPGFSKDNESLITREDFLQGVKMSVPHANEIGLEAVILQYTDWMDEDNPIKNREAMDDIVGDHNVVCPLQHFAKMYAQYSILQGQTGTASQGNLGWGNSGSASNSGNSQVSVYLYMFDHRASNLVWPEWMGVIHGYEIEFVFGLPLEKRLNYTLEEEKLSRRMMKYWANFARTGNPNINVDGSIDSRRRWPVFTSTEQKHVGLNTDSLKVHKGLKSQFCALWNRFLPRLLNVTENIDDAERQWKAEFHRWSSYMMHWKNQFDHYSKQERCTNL
Description: Inhibition of electric eel AChE at 2 mg/ml by Ellman's method

Cholinesterase (Equus caballus), sequence (P81908 whole entry): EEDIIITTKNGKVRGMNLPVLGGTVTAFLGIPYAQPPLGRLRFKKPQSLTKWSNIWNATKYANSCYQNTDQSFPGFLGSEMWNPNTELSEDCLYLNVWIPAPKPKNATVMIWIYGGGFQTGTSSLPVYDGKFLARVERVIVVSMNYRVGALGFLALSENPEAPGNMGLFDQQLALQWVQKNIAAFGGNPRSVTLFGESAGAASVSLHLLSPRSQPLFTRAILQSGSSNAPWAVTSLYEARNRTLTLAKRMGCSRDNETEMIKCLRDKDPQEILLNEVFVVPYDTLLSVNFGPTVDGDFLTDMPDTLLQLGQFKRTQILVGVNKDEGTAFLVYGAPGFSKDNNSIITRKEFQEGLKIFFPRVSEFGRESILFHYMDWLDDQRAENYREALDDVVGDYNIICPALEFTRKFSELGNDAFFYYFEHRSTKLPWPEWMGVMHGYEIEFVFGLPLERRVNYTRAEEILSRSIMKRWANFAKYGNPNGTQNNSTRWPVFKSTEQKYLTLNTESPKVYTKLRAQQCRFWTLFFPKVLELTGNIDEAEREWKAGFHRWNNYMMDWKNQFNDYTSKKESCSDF

C[C@H]1CC[C@@H]2N(C1)C[C@H]1[C@@H]3C[C@H]4[C@@H](CC(=O)[C@H]5C[C@@H](O)CC[C@@]54C)[C@@H]3CC[C@H]1[C@]2(C)O
inhibition [1]: 6.5% | inhibition [2]: 24.9%

COc1cc2c3cc1Oc1cc(ccc1O)C[C@@H]1c4c(cc(OC)c(O)c4Oc4ccc(cc4)C[C@@H]3N(C)CC2)CC[N+]1(C)C
inhibition [1]: 3.03% | inhibition [2]: 5.5%

C[N+]1([O-])[C@@H]2C[C@H](OC(=O)[C@H](CO)c3ccccc3)C[C@@H]1[C@H]1O[C@H]12 (stereo not given in full)
inhibition [1]: -1.85% | inhibition [2]: -6.51%

C=C1[C@@H](C)[C@H]2[C@H](Cc3ccccc3)NC(=O)[C@]23OC(=O)/C=C/[C@H](O)CCC[C@@H](C)C/C=C/[C@H]3[C@@H]1O
inhibition [1]: 8.94% | inhibition [2]: -2.03%

CCCCCCCCCCCCCC[C@@H](O)[C@@H](O)[C@H](CO)NC(C)=O
inhibition [1]: 3.97% | inhibition [2]: 0.15%

CN1C(=O)CC[C@H]1c1cccnc1
inhibition [1]: -0.23% | inhibition [2]: 28.6%

CCCCC[C@H](O)/C=C/[C@H]1C=CC(=O)[C@@H]1CCCCCCC(=O)O
inhibition [1]: -1.82% | inhibition [2]: 15.3%

O=C1c2cccc(O)c2C(=O)c2c(O)cc(CO)cc21
inhibition [1]: -0.88% | inhibition [2]: 14.6%

O=c1c(O[C@@H]2O[C@H](CO)[C@@H](O)[C@H](O)[C@H]2O)c(-c2ccc(O)c(O)c2)oc2cc(O)cc(O)c12
inhibition [1]: 2.54% | inhibition [2]: 0.12%

O=c1cc(-c2ccc(O)cc2)oc2c([C@@H]3O[C@H](CO)[C@@H](O)[C@H](O)[C@H]3O)c(O)cc(O)c12
inhibition [1]: 2.26% | inhibition [2]: 3.3%

CO[C@H]1[C@H](O)[C@H](O[C@H]2CC[C@@]3(C=O)[C@H](CC[C@@H]4[C@@H]3CC[C@]3(C)[C@@H](C5=CC(=O)OC5)CC[C@]43O)C2)O[C@@H](C)[C@@H]1O
inhibition [1]: -1.96% | inhibition [2]: 4.45%

C/C=C(/C)C(=O)O[C@H]1CC[C@@]2(C)[C@@H]3CC[C@H]4[C@]5(O)C[C@H](O)[C@@]6(O)[C@@H](CN7C[C@@H](C)CC[C@H]7[C@@]6(C)O)[C@]5(O)C[C@@]42O[C@]13O
inhibition [1]: 6.44% | inhibition [2]: -3.72%

CC(C)=CCCC1=CC(=O)c2c(O)ccc(O)c2C1=O
inhibition [1]: -2.66% | inhibition [2]: 1.52%

COc1cccc2c1C(=O)c1c(O)c3c(c(O)c1C2=O)C[C@@](O)(C(C)=O)C[C@@H]3O[C@H]1C[C@H](N)[C@H](O)[C@H](C)O1
inhibition [1]: -0.13% | inhibition [2]: 18.1%

CCCCCCCCCCCCCC(=O)O[C@@H]1[C@@H](C)[C@@]2(O)[C@@H](C=C(CO)C[C@]3(O)C(=O)C(C)=C[C@@H]23)[C@@H]2C(C)(C)[C@]12OC(C)=O
inhibition [1]: -6.35% | inhibition [2]: 19.6%

CC(C)(S)[C@H](N)C(=O)O
inhibition [1]: -6.36% | inhibition [2]: 11.7%

O=C(O)Cc1c[nH]c2ccccc12
inhibition [1]: -7.42% | inhibition [2]: 2.98%

COc1ccc(-c2cc(=O)c3c(O)cc(O)cc3o2)cc1
inhibition [1]: -2.17% | inhibition [2]: -1.38%

COc1ccc(C(=O)OC2C[C@H]3CC[C@H](C2)N3C)cc1OC (stereo not given in full)
inhibition [1]: 1% | inhibition [2]: 49.5%

CC1(C)CCC[C@](C)([C@H]2CC[C@]3(C)[C@@H]2[C@H](O)C[C@@H]2[C@@]4(C)CC[C@H](O)C(C)(C)[C@@H]4CC[C@]23C)O1
inhibition [1]: 12.1% | inhibition [2]: 7.82%

Cc1c2ccncc2c(C)c2c1[nH]c1ccccc12
inhibition [1]: 44.1% | inhibition [2]: -1.87%

COc1cc(-c2oc3cc(O)cc(O)c3c(=O)c2O[C@@H]2O[C@H](CO)[C@@H](O)[C@H](O)[C@H]2O)ccc1O
inhibition [1]: 1.08% | inhibition [2]: 30.6%

COc1cc(O)c2c(=O)c(O)c(-c3ccc(O)c(O)c3)oc2c1
inhibition [1]: 3.5% | inhibition [2]: 23.7%

Oc1cc(O)c2c(c1)O[C@H](c1ccc(O)c(O)c1)[C@H](O)C2
inhibition [1]: 0.47% | inhibition [2]: -4.81%

O=C1c2ccccc2-n2c1nc1ccccc1c2=O
inhibition [1]: -2.13% | inhibition [2]: 35.3%

C[C@H]1CCCC(=O)CCC/C=C/c2cc(O)cc(O)c2C(=O)O1
inhibition [1]: -1.04% | inhibition [2]: 1.81%

CCN1C[C@]2(OC(=O)c3ccccc3NC(C)=O)CC[C@H](OC)[C@@]34[C@@H]2C[C@@H]([C@@H]13)[C@@]1(O)C[C@H](OC)[C@H]2C[C@@H]4[C@]1(O)[C@H]2OC
inhibition [1]: -7.41% | inhibition [2]: 1.48%

COc1ccc(C[C@H]2NC[C@H](O)[C@H]2OC(C)=O)cc1
inhibition [1]: -3.31% | inhibition [2]: -1.2%

O=c1cc(-c2ccc(O)cc2)oc2c(O[C@@H]3O[C@H](CO)[C@@H](O)[C@H](O)[C@H]3O)c(O)c(O[C@@H]3O[C@H](CO)[C@@H](O)[C@H](O)[C@H]3O)c(O)c12
inhibition [1]: 1.92% | inhibition [2]: 22.2%

N[C@H]1CONC1=O
inhibition [1]: -5.13% | inhibition [2]: 1.18%

O=c1c(-c2ccc(O)cc2)coc2cc(O)cc(O)c12
inhibition [1]: 10.5% | inhibition [2]: 7.3%

O=c1oc2c(O)c(O)cc3c(=O)oc4c(O)c(O)cc1c4c23
inhibition [1]: 4.4% | inhibition [2]: -6.13%

CC(C)=CC[C@@H](O)C1=CC(=O)c2c(O)ccc(O)c2C1=O
inhibition [1]: 3.58% | inhibition [2]: 15.7%

COC1=CC(=O)O[C@@H](CCc2ccc3c(c2)OCO3)C1
inhibition [1]: 3.66% | inhibition [2]: 24.8%

COc1ccc2c(c1OC)C(=O)O[C@H]2[C@@H]1c2cc3c(cc2CCN1C)OCO3
inhibition [1]: -1.4% | inhibition [2]: 9.75%

— ChEMBL document CHEMBL2163249, “Exploration of natural compounds as sources of new bifunctional scaffolds targeting cholinesterases and beta amyloid aggregation: the case of chelerythrine” (Bioorg Med Chem, 2012)
